Laboratory results published in PubChem BioAssay (NCI).
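1) Cells in 96-well plates. 2) Compound, 48 h, 5 concentrations. 3) Linear interpolation between surrounding doses. 4) Unreached endpoint = highest concentration. GI50 is the concentration that inhibits growth by half. TGI: total growth inhibition.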

Tests used:
Assay in all cases: DTP human tumour cell line panel, 48 h
A549 NSCLC = system: A549 NSCLC
CAKI-1 renal = system: CAKI-1 renal
COLO 205 colon = system: COLO 205 colon
DU-145 prostate = system: DU-145 prostate
EKVX NSCLC = system: EKVX NSCLC
HCT-15 colon = system: HCT-15 colon
HOP-62 NSCLC = system: HOP-62 NSCLC
HS 578T breast = system: HS 578T breast
HT29 colon = system: HT29 colon
MCF7 breast = system: MCF7 breast
MDA-MB-435 = system: MDA-MB-435
NCI-H522 lung = system: NCI-H522 lung
OVCAR-3 ovarian = system: OVCAR-3 ovarian
OVCAR-4 ovarian = system: OVCAR-4 ovarian
OVCAR-8 ovarian = system: OVCAR-8 ovarian
SF-268 CNS = system: SF-268 CNS
SF-295 CNS = system: SF-295 CNS
SK-MEL-2 melanoma = system: SK-MEL-2 melanoma
SNB-75 CNS = system: SNB-75 CNS
SW-620 colon = system: SW-620 colon
T-47D breast = system: T-47D breast
TK-10 renal = system: TK-10 renal
UACC-257 melanoma = system: UACC-257 melanoma
A498 renal = system: A498 renal
ACHN renal = system: ACHN renal
KM12 colon = system: KM12 colon
NCI/ADR-RES ovarian = system: NCI/ADR-RES ovarian
OVCAR-5 ovarian = system: OVCAR-5 ovarian
PC-3 prostate = system: PC-3 prostate
SF-539 CNS = system: SF-539 CNS
SK-MEL-28 melanoma = system: SK-MEL-28 melanoma
SK-OV-3 ovarian = system: SK-OV-3 ovarian
UO-31 renal = system: UO-31 renal
HOP-92 NSCLC = system: HOP-92 NSCLC
MALME-3M melanoma = system: MALME-3M melanoma
MDA-MB-231 breast = system: MDA-MB-231 breast
NCI-H23 lung = system: NCI-H23 lung
786-0 renal = system: 786-0 renal
HCC-2998 colon = system: HCC-2998 colon
HCT-116 colon = system: HCT-116 colon
NCI-H226 lung = system: NCI-H226 lung
NCI-H460 lung = system: NCI-H460 lung
SK-MEL-5 melanoma = system: SK-MEL-5 melanoma
SN12C renal = system: SN12C renal
UACC-62 melanoma = system: UACC-62 melanoma

Q: Which GI50 (A549 NSCLC) does the source give for `C=C(C)[C@@H]1CC[C@]2(C(=O)O)CC[C@]3(C)[C@H](CC[C@@H]4[C@@]5(C)C/C(=C/c6ccco6)C(=O)C(C)(C)[C@@H]5CC[C@]43C)[C@@H]12` here?
A: 2.12 µM

Q: What about the TGI (A549 NSCLC) of the same molecule?
A: > 100 µM

Q: And the GI50 (CAKI-1 renal)?
A: 3.5 µM

Q: And the TGI (CAKI-1 renal)?
A: > 100 µM

Q: What about the GI50 (COLO 205 colon) of the same molecule?
A: 2.15 µM

Q: What about the TGI (COLO 205 colon) of the same molecule?
A: 4.38 µM

Q: And the GI50 (DU-145 prostate)?
A: 3.07 µM

Q: And the TGI (DU-145 prostate)?
A: 12.2 µM

Q: And the GI50 (EKVX NSCLC)?
A: 2.73 µM

Q: And the TGI (EKVX NSCLC)?
A: > 100 µM

Q: And the GI50 (HCT-15 colon)?
A: 2.59 µM

Q: What about the TGI (HCT-15 colon) of the same molecule?
A: 10.5 µM

Q: And the GI50 (HOP-62 NSCLC)?
A: 2.77 µM

Q: What about the TGI (HOP-62 NSCLC) of the same molecule?
A: 31.3 µM

Q: What about the GI50 (HS 578T breast) of the same molecule?
A: 6.66 µM

Q: What about the TGI (HS 578T breast) of the same molecule?
A: > 100 µM

Q: What about the GI50 (HT29 colon) of the same molecule?
A: 3.05 µM

Q: What about the TGI (HT29 colon) of the same molecule?
A: > 100 µM

Q: What about the GI50 (MCF7 breast) of the same molecule?
A: 2.62 µM

Q: What about the TGI (MCF7 breast) of the same molecule?
A: 10.7 µM

Q: And the GI50 (MDA-MB-435)?
A: 3.55 µM

Q: What about the TGI (MDA-MB-435) of the same molecule?
A: > 100 µM

Q: And the GI50 (NCI-H522 lung)?
A: 2.81 µM

Q: What about the TGI (NCI-H522 lung) of the same molecule?
A: 9.85 µM

Q: And the GI50 (OVCAR-3 ovarian)?
A: 1.72 µM

Q: What about the TGI (OVCAR-3 ovarian) of the same molecule?
A: 3.58 µM

Q: And the GI50 (OVCAR-4 ovarian)?
A: 5.9 µM

Q: What about the TGI (OVCAR-4 ovarian) of the same molecule?
A: > 100 µM

Q: And the GI50 (OVCAR-8 ovarian)?
A: 3.5 µM

Q: What about the TGI (OVCAR-8 ovarian) of the same molecule?
A: > 100 µM

Q: And the GI50 (SF-268 CNS)?
A: 3.63 µM

Q: And the TGI (SF-268 CNS)?
A: > 100 µM

Q: And the GI50 (SF-295 CNS)?
A: 3.24 µM

Q: What about the TGI (SF-295 CNS) of the same molecule?
A: > 100 µM

Q: What about the GI50 (SK-MEL-2 melanoma) of the same molecule?
A: 2.75 µM

Q: And the TGI (SK-MEL-2 melanoma)?
A: 8.85 µM

Q: What about the GI50 (SNB-75 CNS) of the same molecule?
A: > 100 µM

Q: What about the TGI (SNB-75 CNS) of the same molecule?
A: > 100 µM

Q: What about the GI50 (SW-620 colon) of the same molecule?
A: 2.52 µM

Q: What about the TGI (SW-620 colon) of the same molecule?
A: 6.89 µM

Q: And the GI50 (T-47D breast)?
A: 3.2 µM

Q: What about the TGI (T-47D breast) of the same molecule?
A: 33.3 µM

Q: And the GI50 (TK-10 renal)?
A: 3.65 µM

Q: And the TGI (TK-10 renal)?
A: 46.9 µM

Q: What about the GI50 (UACC-257 melanoma) of the same molecule?
A: 3.12 µM

Q: What about the TGI (UACC-257 melanoma) of the same molecule?
A: > 100 µM

Q: Which TGI (A498 renal) does the source give for `Cc1cn2c(/C=N/N=C(N)N)c(-c3ccc([N+](=O)[O-])cc3)nc2s1` here?
A: 3.01 µM

Q: What about the TGI (ACHN renal) of the same molecule?
A: 2.82 µM

Q: And the TGI (CAKI-1 renal)?
A: 6.57 µM

Q: What about the TGI (COLO 205 colon) of the same molecule?
A: 1.97 µM

Q: What about the TGI (HCT-15 colon) of the same molecule?
A: 2.77 µM

Q: What about the TGI (HT29 colon) of the same molecule?
A: 2.67 µM

Q: What about the TGI (KM12 colon) of the same molecule?
A: 1.72 µM

Q: What about the TGI (NCI/ADR-RES ovarian) of the same molecule?
A: > 100 µM

Q: What about the TGI (OVCAR-4 ovarian) of the same molecule?
A: 0.316 µM

Q: What about the TGI (OVCAR-5 ovarian) of the same molecule?
A: 2.14 µM

Q: And the TGI (PC-3 prostate)?
A: 2.73 µM

Q: What about the TGI (SF-539 CNS) of the same molecule?
A: 3.05 µM

Q: What about the TGI (SK-MEL-28 melanoma) of the same molecule?
A: 3.05 µM

Q: What about the TGI (SK-OV-3 ovarian) of the same molecule?
A: 3.14 µM

Q: What about the TGI (SNB-75 CNS) of the same molecule?
A: 1.87 µM

Q: And the TGI (SW-620 colon)?
A: 0.331 µM

Q: And the TGI (UO-31 renal)?
A: 3.37 µM

Q: For `O=C1NC(=Nc2ccc(O)cc2)S/C1=C\c1cccs1`, which GI50 (COLO 205 colon) is on record?
A: > 100 µM

Q: What about the TGI (COLO 205 colon) of the same molecule?
A: > 100 µM

Q: And the GI50 (EKVX NSCLC)?
A: > 100 µM

Q: And the TGI (EKVX NSCLC)?
A: > 100 µM

Q: What about the GI50 (HOP-92 NSCLC) of the same molecule?
A: > 100 µM

Q: And the TGI (HOP-92 NSCLC)?
A: > 100 µM

Q: What about the GI50 (HT29 colon) of the same molecule?
A: > 100 µM

Q: What about the TGI (HT29 colon) of the same molecule?
A: > 100 µM

Q: And the GI50 (MALME-3M melanoma)?
A: > 100 µM

Q: What about the TGI (MALME-3M melanoma) of the same molecule?
A: > 100 µM

Q: What about the GI50 (MDA-MB-231 breast) of the same molecule?
A: > 100 µM

Q: What about the TGI (MDA-MB-231 breast) of the same molecule?
A: > 100 µM

Q: And the GI50 (NCI-H23 lung)?
A: > 100 µM

Q: And the TGI (NCI-H23 lung)?
A: > 100 µM

Q: And the GI50 (NCI/ADR-RES ovarian)?
A: > 100 µM

Q: And the TGI (NCI/ADR-RES ovarian)?
A: > 100 µM

Q: And the GI50 (OVCAR-4 ovarian)?
A: > 100 µM

Q: And the TGI (OVCAR-4 ovarian)?
A: > 100 µM

Q: What about the GI50 (SK-MEL-2 melanoma) of the same molecule?
A: > 100 µM

Q: What about the TGI (SK-MEL-2 melanoma) of the same molecule?
A: > 100 µM

Q: What about the GI50 (SK-MEL-28 melanoma) of the same molecule?
A: > 100 µM

Q: What about the TGI (SK-MEL-28 melanoma) of the same molecule?
A: > 100 µM

Q: What about the GI50 (SK-OV-3 ovarian) of the same molecule?
A: > 100 µM

Q: What about the TGI (SK-OV-3 ovarian) of the same molecule?
A: > 100 µM

Q: What about the GI50 (TK-10 renal) of the same molecule?
A: > 100 µM

Q: And the TGI (TK-10 renal)?
A: > 100 µM

Q: What about the GI50 (UACC-257 melanoma) of the same molecule?
A: > 100 µM

Q: And the TGI (UACC-257 melanoma)?
A: > 100 µM

Q: What does the source list for `NC(N)=N/N=C/c1c(-c2ccc(Cl)c([N+](=O)[O-])c2)nc2sccn12`?
A: TGI (786-0 renal): 3.15 µM; TGI (A498 renal): 3.14 µM; TGI (ACHN renal): 3.15 µM; TGI (COLO 205 colon): 2.61 µM; TGI (DU-145 prostate): 3.17 µM; TGI (HCC-2998 colon): 2.94 µM; TGI (HCT-116 colon): 2.25 µM; TGI (HCT-15 colon): 3.5 µM; TGI (HT29 colon): 2.8 µM; TGI (MDA-MB-231 breast): 3.24 µM; TGI (NCI-H226 lung): 6.23 µM; TGI (NCI-H460 lung): 3.3 µM; TGI (NCI/ADR-RES ovarian): > 100 µM; TGI (OVCAR-4 ovarian): 4.49 µM; TGI (OVCAR-5 ovarian): 3.12 µM; TGI (PC-3 prostate): 3.11 µM; TGI (SF-295 CNS): 3.47 µM; TGI (SF-539 CNS): 3.27 µM; TGI (SK-MEL-28 melanoma): 27.8 µM; TGI (SK-MEL-5 melanoma): 3.26 µM; TGI (SN12C renal): 3.29 µM; TGI (TK-10 renal): 3.16 µM; TGI (UACC-62 melanoma): 3.27 µM; TGI (UO-31 renal): 3.05 µM
